Measured values published in US9149038B2, “4-amino-6-(heterocyclic)picolinates and 6-amino-2-(heterocyclic)pyrimidine-4-carboxylates and their use as herbicides” (Dow AgroSciences LLC, priority 2013, dated 2015).
Like-named read-outs stand apart in the source and are kept apart here.

What was measured:
[1] = system: Key Broadleaf Weed and Crop Species; assay: Post-Emergent Test II: postemergent herbicidal activity, visual rating after 14 d (Table 7); assay type: in vivo; conditions: post-emergence, 336 h; for pest or weed control at 35 g/ha: 35 g ai/ha; for pest or weed control at 70 g/ha: 70 g ai/ha; for pest or weed control at 140 g/ha: 140 g ai/ha
Excerpt: (§1) Herbicidal evaluations were made visually on a scale of 0 to 100 where 0 represents no activity and 100 represents complete plant death.
(§2) Seeds or nutlets of the desired test plant species were planted in Sun Gro Metro-Mix® 360 planting mixture, which typically has a pH of 6.0 to 6.8 and an organic matter content of about 30 percent, in plastic pots with a surface area of 64 square centimeters (cm^2). When required to ensure good germination and healthy plants, a fungicide treatment and/or other chemical or physical treatment was applied. The plants were grown for 7-21 d in a greenhouse with an approximate 15 h photoperiod which was maintained at about 23-29° C. during the day and 22-28° C. during the night. Nutrients and water were added on a regular basis and supplemental lighting was provided with overhead metal halide 1000-Watt lamps as necessary. The plants were employed for testing when they reached the first or second true leaf stage.
(§3) A weighed amount, determined by the highest rate to be tested, of each test compound was placed in a 25 mL glass vial and was dissolved in 4 mL of a 97:3 v/v mixture of acetone and DMSO to obtain concentrated stock solutions. […] The concentrated stock solutions obtained were diluted with 20 mL of an aqueous mixture containing acetone, water, isopropyl alcohol, DMSO, Atplus 411F crop oil concentrate, and Triton® X-155 surfactant in a 48.5:39:10:1.5:1.0:0.02 v/v ratio to obtain spray solutions containing the highest application rates. Additional application rates were obtained by serial dilution of 12 mL of the high rate solution into a solution containing 2 mL of a 97:3 v/v mixture of acetone and DMSO and 10 mL of an aqueous mixture containing acetone, water, isopropyl alcohol, DMSO, Atplus 411F crop oil concentrate, and Triton X-155 surfactant in a 48.5:39:10:1.5:1.0:0.02 v/v ratio to obtain ½×, ¼×, ⅛× and 1/16× rates of the high rate. Compound requirements are based upon a 12 mL application volume at a rate of 187 liters per hectare (L/ha). Formulated compounds were applied to the plant material with an overhead Mandel track sprayer equipped with 8002E nozzles calibrated to deliver 187 L/ha over an application area of 0.503 square meters at a spray height of 18 inches (43 cm) above the average plant canopy height. Control plants were sprayed in the same manner with the solvent blank.
(§4) The treated plants and control plants were placed in a greenhouse as described above and watered by subirrigation to prevent wash-off of the test compounds. After 14 d, the condition of the test plants as compared with that of the untreated plants was determined visually and scored on a scale of 0 to 100 percent where 0 corresponds to no injury and 100 corresponds to complete kill and are presented as indicated in Table 4.

[2] = system: Key Grass and Sedge Weeds as well as Grass Crops; assay: Post-Emergent Test II: postemergent herbicidal activity, visual rating after 14 d (Table 8); assay type: in vivo; conditions: post-emergence, 336 h; for pest or weed control at 35 g/ha: 35 g ai/ha; for pest or weed control at 70 g/ha: 70 g ai/ha; for pest or weed control at 140 g/ha: 140 g ai/ha
Excerpt: as §1, §2, §3, §4

[3] = lambsquarters (Chenopodium album), read-out: Visual Growth Reduction (%) 14 Days After Application CHEAL
[4] = oilseed rape, canola (Brassica napus), read-out: Visual Growth Reduction (%) 14 Days After Application BRSNN
[5] = redroot pigweed (Amaranthus retroflexus), read-out: Visual Growth Reduction (%) 14 Days After Application AMARE
[6] = sunflower (Helianthus annuus), read-out: Visual Growth Reduction (%) 14 Days After Application HELAN
[7] = velvetleaf (Abutilon theophrasti), read-out: Visual Growth Reduction (%) 14 Days After Application ABUTH
[8] = wild poinsettia (Euphorbia heterophylla), read-out: Visual Growth Reduction (%) 14 Days After Application EPHHL
[9] = giant foxtail (Setaria faberi), read-out: Visual Growth Reduction (%) 14 Days After Application SETFA
[10] = maize, corn (Zea mays), read-out: Visual Growth Reduction (%) 14 Days After Application ZEAMX
[11] = rice (Oryza sativa), read-out: Visual Growth Reduction (%) 14 Days After Application ORYSA
[12] = wheat, spring (Triticum aestivum), read-out: Visual Growth Reduction (%) 14 Days After Application TRZAS
[13] = yellow nutsedge (Cyperus esculentus), read-out: Visual Growth Reduction (%) 14 Days After Application CYPES
[14] = barnyardgrass (Echinochloa crus-galli), read-out: Visual Growth Reduction (%) 14 Days After Application ECHCG

Structure (SMILES) | pest or weed control at 35 g/ha [1, 3] [%] | pest or weed control at 70 g/ha [1, 3] [%] | pest or weed control at 140 g/ha [1, 3] [%] | pest or weed control at 35 g/ha [1, 4] [%] | pest or weed control at 70 g/ha [1, 4] [%] | pest or weed control at 140 g/ha [1, 4] [%] | pest or weed control at 35 g/ha [1, 5] [%] | pest or weed control at 70 g/ha [1, 5] [%] | pest or weed control at 140 g/ha [1, 5] [%] | pest or weed control at 35 g/ha [1, 6] [%] | pest or weed control at 70 g/ha [1, 6] [%] | pest or weed control at 140 g/ha [1, 6] [%] | pest or weed control at 35 g/ha [1, 7] [%] | pest or weed control at 70 g/ha [1, 7] [%] | pest or weed control at 140 g/ha [1, 7] [%] | pest or weed control at 35 g/ha [1, 8] [%] | pest or weed control at 70 g/ha [1, 8] [%] | pest or weed control at 140 g/ha [1, 8] [%] | pest or weed control at 35 g/ha [2, 10] [%] | pest or weed control at 70 g/ha [2, 10] [%] | other results
Cc1c(-c2cc(N)c(Cl)c(C(=O)O)n2)ccc2c1OC(F)(F)O2 [Compound 36] | 0 to 29 | 45 to 59 | 45 to 59 | 0 to 29 | 30 to 44 | 45 to 59 | 95 to 100 | 95 to 100 | 95 to 100 | 75 to 84 | 75 to 84 | 85 to 94 | 0 to 29 | 0 to 29 | 0 to 29 | 0 to 29 | 0 to 29 | 0 to 29 | 0 to 29 | 0 to 29 | pest or weed control at 35 g/ha [2, 9]: 0 to 29%; pest or weed control at 70 g/ha [2, 9]: 30 to 44%; pest or weed control at 140 g/ha [2, 9]: 45 to 59%; pest or weed control at 140 g/ha [2, 10]: 0 to 29%; pest or weed control at 35 g/ha [2, 11]: 0 to 29%; pest or weed control at 70 g/ha [2, 11]: 0 to 29%; pest or weed control at 140 g/ha [2, 11]: 0 to 29%; pest or weed control at 35 g/ha [2, 12]: 0 to 29%; pest or weed control at 70 g/ha [2, 12]: 0 to 29%; pest or weed control at 140 g/ha [2, 12]: 0 to 29%; pest or weed control at 35 g/ha [2, 13]: 0 to 29%; pest or weed control at 70 g/ha [2, 13]: 0 to 29%; pest or weed control at 140 g/ha [2, 13]: 0 to 29%
COC(=O)c1nc(-c2cc3c(cc2Cl)OC(F)(F)O3)cc(N)c1Cl [Compound 40] | 0 to 29 | 0 to 29 | 0 to 29 | 0 to 29 | 0 to 29 | 0 to 29 | 0 to 29 | 95 to 100 | 95 to 100 | 0 to 29 | 0 to 29 | 0 to 29 | 0 to 29 | 0 to 29 | 0 to 29 | 0 to 29 | 0 to 29 | 0 to 29 | 0 to 29 | 0 to 29 | pest or weed control at 35 g/ha [2, 14]: 0 to 29%; pest or weed control at 70 g/ha [2, 14]: 0 to 29%; pest or weed control at 140 g/ha [2, 14]: 0 to 29%; pest or weed control at 140 g/ha [2, 10]: 45 to 59%; pest or weed control at 35 g/ha [2, 11]: 0 to 29%; pest or weed control at 70 g/ha [2, 11]: 0 to 29%; pest or weed control at 140 g/ha [2, 11]: 0 to 29%; pest or weed control at 35 g/ha [2, 12]: 0 to 29%; pest or weed control at 70 g/ha [2, 12]: 0 to 29%; pest or weed control at 140 g/ha [2, 12]: 0 to 29%; pest or weed control at 35 g/ha [2, 13]: 0 to 29%; pest or weed control at 70 g/ha [2, 13]: 0 to 29%; pest or weed control at 140 g/ha [2, 13]: 0 to 29%
